Results: patent US7718767B2, “3-ether and 3-thioether substituted cyclosporin derivatives for the treatment and prevention of hepatitis C infection” (Scynexis, Inc., priority 2006, dated 2010)

What was measured:
CEM-SS cells = test: Compound cytotoxicity in the HIV MTS assay (cells plus drug only); assay type: cell-based, human; conditions: 50% inhibition of cell growth
Protocol: In this MTS cytoprotection assay, each experiment included cell control wells (cells only), virus control wells (cells plus virus), drug toxicity wells (cells plus drug only), drug colorimetric control wells (drug only) as well as experimental wells (drug plus cells plus virus). […] HIV-1RF was added to each well in a volume of 50 μL, the amount of virus determined to give approximately 90% cell killing at 6 days post-infection. At assay termination, assay plates were stained with the soluble tetrazolium-based dye MTS (CellTiter 96 Reagent, Promega) to determine cell viability and quantify compound toxicity. MTS is metabolized by the mitochondria enzymes of metabolically active cells to yield a soluble formazan product, providing a quantitative analysis of cell viability and compound cytotoxicity. The assay was validated in parallel experiments using Zidovudine (3′-azido-3′-deoxythymidine or AZT) as a positive control.

HIV-1IIIB = test: HIV MTS cytoprotection assay in CEM-SS cells; assay type: cell-based, human immunodeficiency virus-1; conditions: 6 days post-infection, concentration inhibiting virus replication by 50%
[1] = test system: human hepatoma cell line ET; test: Cytotoxicity in the replicon cell line, colorimetric assay of cell numbers; conditions: ET cells, 72 h; for IC50: read-out: Cytotoxicity IC50, concentration inhibiting cell viability by 50%; for IC90: read-out: Cytotoxicity IC90, concentration inhibiting cell viability by 90%
Description: Compounds were examined in the human hepatoma cell line ET (lub ubi heo/ET), a HCV RNA replicon containing a stable luciferase (LUC) reporter. The HCV RNA replicon ET contains the 5′ end of HCV (with the HCV Internal Ribosome Entry Site (IRES) and the first few amino acids of the HCV core protein) which drives the production of a firefly luciferase (LUC), ubiquitin, and neomycin phosphotransferase (NeoR) fusion protein. Ubiquitin cleavage releases the LUC and NeoR proteins. The EMCV IRES element controls the translation of the HCV […] NS3-NS5. The NS3 protein cleaves the HCV polyprotein to release the mature NS3, NS4A, NS4B, NS5A and NS5B proteins that are required for HCV replication. At the 3′ end of the replicon is the authentic 3′ NTR of HCV. The activity of the LUC reporter is directly proportional to HCV replication levels and positive-control antiviral compounds produce a reproducible antiviral response using the LUC endpoint.
The compounds were dissolved in DMSO at five half-log concentrations each, ranging from either 0.02 to 2.0 μM, 0.03 to 3 μM, […], or 1 to 100 μM. Subconfluent cultures of the ET line were plated out into 96 well plates dedicated for the analysis of cell numbers (cytotoxicity) or antiviral activity and the next day the compounds were added to the appropriate wells. The cells were processed 72 h later when the cells were still subconfluent. […] The activity of the LUC reporter is directly proportional to HCV RNA levels in the human cell line. The HCV-replicon assay was validated in parallel experiments using interferon-alpha-2b as a positive control.

HCV RNA replicon ET = test: HCV RNA replicon luciferase reporter assay, antiviral activity; assay type: cell-based; conditions: ET replicon cells, 72 h, LUC activity; for EC50: concentration reducing viral replication by 50%; for EC90: concentration reducing viral replication by 90%

Compound | IC50 (CEM-SS cells) [nM] | EC50 (HIV-1IIIB) [nM] | IC50 [1] [nM] | IC90 [1] [nM] | EC50 (HCV RNA replicon ET) [nM] | EC90 (HCV RNA replicon ET) [nM]
C=CCO[C@@H]1C(=O)N(C)[C@@H](CC(C)(C)O)C(=O)N[C@@H](C(C)C)C(=O)N(C)[C@@H](CC(C)C)C(=O)N[C@@H](C)C(=O)N[C@H](C)C(=O)N(C)[C@@H](CC(C)C)C(=O)N(C)[C@@H](CC(C)C)C(=O)N(C)[C@@H](C(C)C)C(=O)N(C)[C@@H]([C@H](O)[C@H](C)C/C=C/C)C(=O)N[C@@H](CC)C(=O)N1C [U, 3-(prop-2-ene-1-oxy)-4-(gamma-hydroxymethylleucine)cyclosporin] | 13400 | 110 | > 2000 | > 2000 | 90 | 450
C/C=C/C[C@@H](C)[C@@H](O)[C@H]1C(=O)N[C@@H](CC)C(=O)N(C)C(OC)C(=O)N(C)[C@@H](CC(C)(C)O)C(=O)N[C@@H](C(C)C)C(=O)N(C)[C@@H](CC(C)C)C(=O)N[C@@H](C)C(=O)N[C@H](C)C(=O)N(C)[C@@H](CC(C)C)C(=O)N(C)[C@@H](CC(C)C)C(=O)N(C)[C@@H](C(C)C)C(=O)N1C (some centres unmarked) [Compound T, 3-(methoxy)-4-(gamma-hydroxymethylleucine)cyclosporin] | 18000 |  | > 2000 | > 2000 |  | 
C/C=C/C[C@@H](C)[C@@H](O)[C@H]1C(=O)N[C@@H](CC)C(=O)N(C)[C@H](OCCCOC)C(=O)N(C)[C@@H](CC(C)(C)O)C(=O)N[C@@H](C(C)C)C(=O)N(C)[C@@H](CC(C)C)C(=O)N[C@@H](C)C(=O)N[C@H](C)C(=O)N(C)[C@@H](CC(C)C)C(=O)N(C)[C@@H](CC(C)C)C(=O)N(C)[C@@H](C(C)C)C(=O)N1C [Y, 3-[3-(methoxy)propoxy]-4-(gamma-hydroxymethylleucine)cyclosporin] | > 20000 | 520 | > 2000 | > 2000 | 300 | 950
C/C=C/C[C@@H](C)[C@@H](O)[C@H]1C(=O)N[C@@H](CC)C(=O)N(C)[C@H](SCCN(C)C)C(=O)N(C)[C@@H](CC(C)(C)O)C(=O)N[C@@H](C(C)C)C(=O)N(C)[C@@H](CC(C)C)C(=O)N[C@@H](C)C(=O)N[C@H](C)C(=O)N(C)[C@@H](CC(C)C)C(=O)N(C)[C@@H](CC(C)C)C(=O)N(C)[C@@H](C(C)C)C(=O)N1C [Compound O, 3-[(R)-2-(N,N-dimethylamino)ethylthio-Sar]-4-(gamma-hydroxymethylleucine)cyclosporin] | 20000 | 60 | 13400 | > 20000 | 122 | 300
C/C=C/C[C@@H](C)[C@@H](O)[C@H]1C(=O)N[C@@H](CC)C(=O)N(C)C(SC)C(=O)N(C)[C@@H](CC(C)(C)O)C(=O)N[C@@H](C(C)C)C(=O)N(C)[C@@H](CC(C)C)C(=O)N[C@@H](C)C(=O)N[C@H](C)C(=O)N(C)[C@@H](CC(C)C)C(=O)N(C)[C@@H](CC(C)C)C(=O)N(C)[C@@H](C(C)C)C(=O)N1C (some centres unmarked) [S, 3-(methylthio)-4-(gamma-hydroxymethylleucine)cyclosporin] | 14000 | 90 | > 2000 | > 2000 |  | 160
C/C=C/C[C@@H](C)[C@@H](O)[C@H]1C(=O)N[C@@H](CC)C(=O)N(C)C(OCCCO)C(=O)N(C)[C@@H](CC(C)C)C(=O)N[C@@H](C(C)C)C(=O)N(C)[C@@H](CC(C)C)C(=O)N[C@@H](C)C(=O)N[C@H](C)C(=O)N(C)[C@@H](CC(C)C)C(=O)N(C)[C@@H](CC(C)C)C(=O)N(C)[C@@H](C(C)C)C(=O)N1C (some centres unmarked) [H, 3-(3-hydroxypropoxy)cyclosporin] | 13300 | 1380 | > 20000 | > 20000 | < 200 | 370
C/C=C/C[C@@H](C)[C@@H](O)[C@H]1C(=O)N[C@@H](CC)C(=O)N(C)[C@H](OC(C)C)C(=O)N(C)[C@@H](CC(C)C)C(=O)N[C@@H](C(C)C)C(=O)N(C)[C@@H](CC(C)C)C(=O)N[C@@H](C)C(=O)N[C@H](C)C(=O)N(C)[C@@H](CC(C)C)C(=O)N(C)[C@@H](CC(C)C)C(=O)N(C)[C@@H](C(C)C)C(=O)N1C [D, 3-(isopropoxy)cyclosporin] | > 20000 | 1360 | 17200 | > 20000 | 290 | 1320
C/C=C/C[C@@H](C)[C@@H](O)[C@H]1C(=O)N[C@@H](CC)C(=O)N(C)C(OCCOC)C(=O)N(C)[C@@H](CC(C)(C)O)C(=O)N[C@@H](C(C)C)C(=O)N(C)[C@@H](CC(C)C)C(=O)N[C@@H](C)C(=O)N[C@H](C)C(=O)N(C)[C@@H](CC(C)C)C(=O)N(C)[C@@H](CC(C)C)C(=O)N(C)[C@@H](C(C)C)C(=O)N1C (some centres unmarked) [X, 3-[2-(methoxy)ethoxy]-4-(gamma-hydroxymethylleucine)cyclosporin] | > 20000 | 1000 | > 2000 | > 2000 | 480 | 1500
C/C=C/C[C@@H](C)[C@@H](O)[C@H]1C(=O)N[C@@H](CC)C(=O)N(C)[C@H](OCCN2CCOCC2)C(=O)N(C)[C@@H](CC(C)C)C(=O)N[C@@H](C(C)C)C(=O)N(C)[C@@H](CC(C)C)C(=O)N[C@@H](C)C(=O)N[C@H](C)C(=O)N(C)[C@@H](CC(C)C)C(=O)N(C)[C@@H](CC(C)C)C(=O)N(C)[C@@H](C(C)C)C(=O)N1C [Compound L, 3-[2-(N-morpholine)ethoxy)cyclosporin] | 19500 | 1930 | 11500 | > 20000 | 280 | 1250
C/C=C/C[C@@H](C)[C@@H](O)[C@H]1C(=O)N[C@@H](CC)C(=O)N(C)C(SCC)C(=O)N(C)[C@@H](CC(C)C)C(=O)N[C@@H](C(C)C)C(=O)N(C)[C@@H](CC(C)C)C(=O)N[C@@H](C)C(=O)N[C@H](C)C(=O)N(C)[C@@H](CC(C)C)C(=O)N(C)[C@@H](CC(C)C)C(=O)N(C)[C@@H](C(C)C)C(=O)N1C (some centres unmarked) [P, 3-ethylthiocyclosporin] | 6150 | 160 | 6150 | > 20000 | 230 | 580
C/C=C/C[C@@H](C)[C@@H](O)[C@H]1C(=O)N[C@@H](CC)C(=O)N(C)[C@H](SCCOC)C(=O)N(C)[C@@H](CC(C)C)C(=O)N[C@@H](C(C)C)C(=O)N(C)[C@@H](CC(C)C)C(=O)N[C@@H](C)C(=O)N[C@H](C)C(=O)N(C)[C@@H](CC(C)C)C(=O)N(C)[C@@H](CC(C)C)C(=O)N(C)[C@@H](C(C)C)C(=O)N1C [R, 3-[(2-methoxy)ethylthio]cyclosporin] | 17300 | 500 | 11100 | > 20000 | 310 | 590
C=CCS[C@@H]1C(=O)N(C)[C@@H](CC(C)C)C(=O)N[C@@H](C(C)C)C(=O)N(C)[C@@H](CC(C)C)C(=O)N[C@@H](C)C(=O)N[C@H](C)C(=O)N(C)[C@@H](CC(C)C)C(=O)N(C)[C@@H](CC(C)C)C(=O)N(C)[C@@H](C(C)C)C(=O)N(C)[C@@H]([C@H](O)[C@H](C)C/C=C/C)C(=O)N[C@@H](CC)C(=O)N1C [Q, 3-propenylthiocyclosporin] | 18900 | 230 | 18900 | > 20000 | 210 | 620
